In PMC5420417, “Inhibitory Effect of Chemical Constituents Isolated from Artemisia iwayomogi on Polyol Pathway and Simultaneous Quantification of Major Bioactive Compounds” (BioMed Research International, 2017):
Where two headings read alike, the source gives them in different places.

Key:
aldose reductase (AR) = biological target: T1, aldose reductase (AR) (Rattus norvegicus, UniProt P07943); assay: Aldose reductase (AR) inhibitory activity, rat lens homogenate, decrease of β-NADPH absorption at 340 nm; assay type: biochemical, Sprague-Dawley rats
T1 construct: The rat lenses were homogenized in 0.1 M sodium phosphate buffer (pH 6.2) and centrifuged; from tissue; host or cells: lens of Sprague-Dawley rats (homogenate supernatant)
Description: Rat lenses (one lens per 0.5 mL sodium buffer) were obtained from Sprague-Dawley rats (weighing 250~280 g). The rat lenses were homogenized in 0.1 M sodium phosphate buffer (pH 6.2) and centrifuged at 10,000 rpm (4°C, 20 min). After centrifugation, the supernatant was used as an enzyme. AR activity was spectrophotometrically determined by measuring the decrease in the absorption of β-NADPH at 340 nm for a 4 min period using DL-glyceraldehydes as substrates. The assay mixture contained 1.6 mM β-NADPH, 0.1 M potassium phosphate buffer (pH 7.0), AR homogenate, 4 M ammonium sulfate, 0.025 M DL-glyceraldehyde, and the sample in 100% DMSO. The total volume of the assay mixture was 0.3 mL and the reaction was performed in a 96-well plate. 3,3′-Tetramethylene glutaric acid (TMG), a typical AR inhibitor, was used as a positive control.
(§1) Inhibition (%): (Ac − As/Ac) × 100. In AR inhibition activity, Ac is absorbance of control and As is absorbance of samples. In AGEs formation inhibition activity, Ac is fluorescence of control and As is fluorescence of samples. […] IC50 values were calculated from the least-squares regression line of the log of concentration plotted against residual activity. All assays were performed in triplicate. Data was presented as mean ± standard deviation (SD).

[1] = system: advanced glycation endproducts (AGEs) formation; assay: AGEs formation inhibitory activity, bovine serum albumin with fructose and glucose, fluorescence; assay type: biochemical; conditions: for IC50: ND = not detected
Description: Inhibition of AGEs formation was determined by an assay containing bovine serum albumin (10 mg/mL) in 50 mM phosphate buffer (pH 7.4) with 0.02% sodium azide, to which 0.4 M fructose and glucose was added. The assay mixture was incubated at 60°C for 2 days. After incubating, the reaction was measured on Fluorescence in a 96-black-well plate (excitation wavelength 350 nm, emission wavelength 450 nm). Aminoguaidine (AG) was used as a positive control.
as §1

AR = system: AR; set-up: method as in PMID 21092751, PMID 18379080; conditions: previous literature ref 24, 38; cited from earlier work
[2] = BSA 10 mg/mL, 0.4 M fructose and glucose, 60°C, 2 days, mean ± SD
[3] = rat lens AR, DL-glyceraldehyde substrate, mean ± SD, triplicate, read-out: IC50 AR

IC50 [1, 2] [µM] | IC50 (aldose reductase (AR); [3]) [µM] | Structure (SMILES) | further results
312 ± 11.3 | > 200 | COc1cc(O)c2c(=O)cc(-c3ccc(O)cc3)oc2c1 [Compound 3, genkwanin] | –
170 ± 16.4 | 111 ± 9.89 | COc1cc(-c2cc(=O)c3c(O)c(OC)c(O)cc3o2)ccc1O [Compound 5, jaceosidin] | –
44.5 ± 4.86 | 1.48 ± 0.04 | COC(=O)C1(O)CC(OC(=O)/C=C/c2ccc(O)c(O)c2)C(O)C(OC(=O)/C=C/c2ccc(O)c(O)c2)C1 (centres unmarked) [Compound 16, 3,5-di-O-caffeoylquinic acid methyl ester] | –
82.4 ± 1.52 | 131.37 ± 0.12 | COc1cc2ccc(=O)oc2cc1O[C@@H]1O[C@H](CO)[C@@H](O)[C@H](O)[C@H]1O [Compound 2, scopolin] | –
24.9 ± 1.86 | 0.22 ± 0.01 | O=C(/C=C/c1ccc(O)c(O)c1)OC1CC(OC(=O)/C=C/c2ccc(O)c(O)c2)(C(=O)O)CC(O)C1O (centres unmarked) [Compound 13, 1,3-di-O-caffeoylquinic acid] | inhibition of AR (in words) (aldose reductase (AR); rat lens AR): strongest inhibition
176 ± 5.77 | 4.54 ± 0.16 | O=C(/C=C/c1ccc(O)c(O)c1)OC1CC(O)(C(=O)O)CC(O)C1O (centres unmarked) [Compound 12, 3-O-caffeoylquinic acid] | –
– | – | O=C(O)/C=C/c1ccc(O)c(O)c1 [caffeic acid] | inhibitory activity on AR (in words) (AR): no inhibitory activity
– | > 200 | CC1(C)C(O)CCC2(C)C3CCC4CC3(CCC12)CC4(O)COC1OC(CO)C(O)C(O)C1O (centres unmarked) [Compound 17, iwayoside A] | –
1049 ± 0.11 | > 200 | COc1cc(OC2OC(CO)C(O)C(O)C2O)cc(O)c1C(C)=O [Compound 20, 2,4-dihydroxy-6-methoxyacetophenone 4-O-β-D-glucopyranoside] | inhibition of AGEs formation (in words) ([1]; BSA/fructose/glucose): only slight inhibition
– | > 200 | CC1(C)C(O)CCC2(C)C3CCC4CC3(CCC12)CC4(O)COC1OC(CO)C(O)C(O)C1O (centres unmarked) [Compound 18, suavioside A] | –
67.4 ± 9.95 | 3.32 ± 0.21 | O=c1c(O[C@@H]2O[C@H](CO)[C@@H](O)[C@H](O)[C@H]2O)c(-c2ccc(O)c(O)c2)oc2cc(O)cc(O)c12 [Compound 9, isoquercetin] | –
– | > 200 | CC1(C)C(=O)CCC2(C)C3CCC4CC3(CCC12)CC4(O)COC1OC(CO)C(O)C(O)C1O (centres unmarked) [Compound 19, sugeroside] | –
129 ± 4.01 | 12.5 ± 0.2 | C[C@@H]1O[C@@H](OC[C@H]2O[C@@H](Oc3c(-c4ccc(O)c(O)c4)oc4cc(O)cc(O)c4c3=O)[C@H](O)[C@@H](O)[C@@H]2O)[C@H](O)[C@H](O)[C@H]1O [Compound 11, rutin] | –
197 ± 11 | 3.19 ± 0.1 | COc1c(O)cc2oc(-c3ccc(O)c(O)c3)c(OC3OC(CO)C(O)C(O)C3O)c(=O)c2c1O (centres unmarked) [Compound 8, patuletin-3-O-glucoside] | –
20.7 ± 1.38 | 90.4 ± 1.91 | COc1cc2ccc(=O)oc2cc1O [Compound 1, scopoletin] | inhibition of AR (in words) (aldose reductase (AR); rat lens AR): minor inhibition

Structure (SMILES) | IC50 [1, 2] [µM] | IC50 (aldose reductase (AR); [3]) [µM] | further results
COc1c(O)cc2oc(-c3ccc(O)cc3)cc(=O)c2c1O [Compound 4, hispidulin] | 185.6 ± 0.2 | – | IC50 (aldose reductase (AR)): 2.93 ± 0.11 µM
N=C(N)NN [AG, Aminoguaidine, reference compound] | 415 ± 5.96 | – | IC50 AGEs formation ([1]; BSA 10 mg/mL, 0.4 M fructose and glucose, 60°C, 2 days, extract and fractions, mean ± SD): 45.85 ± 7.17^∗∗ μg/ml
O=C(/C=C/c1ccc(O)c(O)c1)OC1CC(O)(C(=O)O)CC(OC(=O)/C=C/c2ccc(O)c(O)c2)C1O (centres unmarked) [Compound 15, 3,5-di-O-caffeoylquinic acid] | 31.8 ± 0.56 | – | –
O=C(/C=C/c1ccc(O)c(O)c1)OC1CC(O)(C(=O)O)CC(O)C1OC(=O)/C=C/c1ccc(O)c(O)c1 (centres unmarked) [Compound 14, 3,4-di-O-caffeoylquinic acid] | 124 ± 4.25 | 1.9 ± 0.01 | –
O=C(O)CC1(CC(=O)O)CCCC1 [TMG, 3,3′-Tetramethylene glutaric acid, reference compound] | – | 6.58 ± 0.19 | IC50 AR (aldose reductase (AR); rat lens AR, DL-glyceraldehyde substrate, extract and fractions, mean ± SD, triplicate): 1.22 ± 0.03^∗ μg/ml
